Laboratory results reported in patent US9920032B2, “Heterocyclic compounds useful as pim kinase inhibitors” (Incyte Corporation, priority 2015, dated 2018).

Experiments:
Format in all cases: biochemical
[1] = molecular target: Pim-1 (Homo sapiens (Human), UniProt P11309); assay: Pim-1 kinase assay; details: 1 mM ATP; read-out: PIM1 IC50
How it was run: (§1)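 Enzyme at 2.5 pM (Pim-1) or 1.25 pM (Pim-3) reacted 1 h at 25° C with 1 mM ATP and 0.05 μM biotinylated BAD peptide, pH 7.5. Phospho-Ser112 BAD detected by antibody/Protein-A acceptor and streptavidin donor bead proximity signal after EDTA quench and 1 h dark incubation.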

[2] = molecular target: Pim-2 (Homo sapiens (Human), UniProt Q9P1W9); assay: Pim-2 kinase assay; details: 1 mM ATP; read-out: PIM2 IC50
Sequence of Pim-2 (Q9P1W9 whole entry): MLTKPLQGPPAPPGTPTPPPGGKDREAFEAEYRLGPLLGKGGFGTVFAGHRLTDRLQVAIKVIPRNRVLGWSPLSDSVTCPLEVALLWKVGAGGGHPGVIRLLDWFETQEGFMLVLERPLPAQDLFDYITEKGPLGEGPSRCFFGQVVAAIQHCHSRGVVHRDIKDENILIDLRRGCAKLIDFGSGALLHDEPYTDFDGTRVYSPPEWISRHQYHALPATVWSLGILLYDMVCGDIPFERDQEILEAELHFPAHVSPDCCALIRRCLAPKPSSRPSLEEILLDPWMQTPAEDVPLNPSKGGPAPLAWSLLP
How it was run: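 TR-FRET assay with 1 nM enzyme, 0.05 μM fluorescein-CREBtide and 1 mM ATP in Tris pH 7.5 buffer with MgCl2, DTT, BSA and Tween-20, run 2 h at 25° C. Stopped with EDTA and Tb-labelled anti-CREB pSer133 antibody, then read after 30 min at room temperature.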

[3] = molecular target: Pim-3 (Homo sapiens (Human), UniProt Q86V86); assay: Pim-3 kinase assay; details: 1 mM ATP; read-out: PIM3 IC50
How it was run: as §1

Sequence of Pim-1 (P11309 whole entry): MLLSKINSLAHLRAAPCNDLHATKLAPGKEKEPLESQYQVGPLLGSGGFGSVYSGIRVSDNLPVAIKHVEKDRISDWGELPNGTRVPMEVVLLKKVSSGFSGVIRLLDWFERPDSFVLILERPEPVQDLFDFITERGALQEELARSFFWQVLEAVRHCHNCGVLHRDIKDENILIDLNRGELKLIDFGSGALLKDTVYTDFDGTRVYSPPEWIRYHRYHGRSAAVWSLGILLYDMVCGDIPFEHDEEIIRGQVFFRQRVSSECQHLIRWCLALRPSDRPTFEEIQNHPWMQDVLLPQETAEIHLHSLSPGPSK

With `C[C@@H]1C[C@H](N)C[C@H](c2ccncc2NC(=O)c2ccc(F)c3cc(N4CCCC(F)(F)C4)cnc23)C1` [Example 28, N-{4-[(1R,3S,5S)-3-Amino-5-methylcyclohexyl]pyridin-3-yl}-3-(3,3-difluoropiperidin-1-yl)-5-fluoroquinoline-8-carboxamide] as the compound, how does the IC50 [1] read?
The IC50 was at most 10 nM.

And the IC50 [2]?
Its IC50 is at most 100 nM.

And the IC50 [3]?
Its IC50 is at most 10 nM.

With `CCc1cc2c(F)ccc(C(=O)Nc3cnccc3[C@@H]3C[C@H](C)C[C@H](N)C3)c2nn1` [Example 92, N-{4-[(1R,3S,5S)-3-Amino-5-methylcyclohexyl]pyridin-3-yl}-3-ethyl-5-fluorocinnoline-8-carboxamide] as the compound, how does the IC50 [1] read?
The IC50 was at most 10 nM.

And the IC50 [2]?
Its IC50 is 1000 to 10000 nM.

What about the IC50 [3] of the same compound?
The IC50 was 10 to 50 nM.

For `CC(C)[C@H](C)Nc1cnc2c(C(=O)Nc3cnccc3[C@@H]3C[C@H](C)C[C@H](N)C3)ccc(F)c2c1` [Example 53, N-(4-((1R,3S,5S)-3-Amino-5-methylcyclohexyl)pyridin-3-yl)-5-fluoro-3-((S)-3-methylbutan-2-ylamino)quinoline-8-carboxamide], which IC50 [1] is on record?
Its IC50 is at most 10 nM.

And the IC50 [2]?
Its IC50 is 100 to 1000 nM.

And the IC50 [3]?
Its IC50 is at most 10 nM.

Which IC50 [1] does the source give for `C[C@@H]1C[C@H](N)C[C@H](c2ccncc2NC(=O)c2ccc(F)c3cc(Nc4ccccc4F)cnc23)C1` [Example 125, N-(4-((1R,3S,5S)-3-Amino-5-methylcyclohexyl)pyridin-3-yl)-5-fluoro-3-(2-fluorophenylamino)quinoline-8-carboxamide] here?
Its IC50 is at most 10 nM.

And the IC50 [2]?
Its IC50 is at most 100 nM.

What about the IC50 [3] of the same compound?
The IC50 was at most 10 nM.

With `C[C@@H]1C[C@H](N)C[C@H](c2ccncc2NC(=O)c2cccc3cc(N4CCC[C@@H]4C)cnc23)C1` [Example 69, N-(4-((1R,3S,5S)-3-Amino-5-methylcyclohexyl)pyridin-3-yl)-3-((S)-2-methylpyrrolidin-1-yl)quinoline-8-carboxamide] as the compound, how does the IC50 [1] read?
Its IC50 is at most 10 nM.

What about the IC50 [2] of the same compound?
The IC50 was at most 100 nM.

And the IC50 [3]?
Its IC50 is at most 10 nM.

Which results are given for `COc1ccccc1N(C)c1cnc2c(C(=O)Nc3cnccc3[C@@H]3C[C@H](C)C[C@H](N)C3)ccc(F)c2c1` [Example 152, N-(4-((1R,3S,5S)-3-Amino-5-methylcyclohexyl)pyridin-3-yl)-5-fluoro-3-((2-methoxyphenyl)(methyl)amino)quinoline-8-carboxamide]?
IC50 [1]: ≤ 10 nM; IC50 [2]: ≤ 100 nM; IC50 [3]: ≤ 10 nM

What does the source list for `COC[C@@H]1CCCN1c1cnc2c(C(=O)Nc3cnccc3[C@@H]3C[C@H](C)C[C@H](N)C3)ccc(F)c2c1` [Example 48, N-(4-((1R,3S,5S)-3-Amino-5-methylcyclohexyl)pyridin-3-yl)-5-fluoro-3-((S)-2-(methoxymethyl)pyrrolidin-1-yl)quinoline-8-carboxamide]?
IC50 [1]: ≤ 10 nM; IC50 [2]: 100 to 1000 nM; IC50 [3]: ≤ 10 nM

For `C[C@@H]1C[C@H](N)C[C@H](c2ccncc2NC(=O)c2ccc(F)c3cc(N4CCCC4=O)cnc23)C1` [Example 78, N-(4-((1R,3S,5S)-3-Amino-5-methylcyclohexyl)pyridin-3-yl)-5-fluoro-3-(2-oxopyrrolidin-1-yl)quinoline-8-carboxamide], which IC50 [1] is on record?
The IC50 was at most 10 nM.

What about the IC50 [2] of the same compound?
The IC50 was 100 to 1000 nM.

What about the IC50 [3] of the same compound?
The IC50 was at most 10 nM.

Which results are given for `C[C@@H]1C[C@H](N)C[C@H](c2ccncc2NC(=O)c2ccc(F)c3cc(N4CCC[C@H]4C)nnc23)C1` [Example 95, N-{4-[(1R,3S,5S)-3-Amino-5-methylcyclohexyl]pyridin-3-yl}-5-fluoro-3-[(2R)-2-methylpyrrolidin-1-yl]cinnoline-8-carboxamide]?
IC50 [1]: ≤ 10 nM; IC50 [2]: ≤ 100 nM; IC50 [3]: ≤ 10 nM

Which IC50 [1] does the source give for `C[C@@H]1C[C@H](N)C[C@H](c2ccncc2NC(=O)c2ccc(F)c3cc(N4CCN(S(C)(=O)=O)C[C@@H]4C)cnc23)C1` [Example 85, N-(4-((1R,3S,5S)-3-Amino-5-methylcyclohexyl)pyridin-3-yl)-5-fluoro-3-((S)-2-methyl-4-(methylsulfonyl)piperazin-1-yl)quinoline-8-carboxamide] here?
Its IC50 is at most 10 nM.

And the IC50 [2]?
Its IC50 is 100 to 1000 nM.

What about the IC50 [3] of the same compound?
The IC50 was at most 10 nM.

How did the IC50 [1] turn out when `C[C@@H]1C[C@H](N)C[C@H](c2ccncc2NC(=O)c2ccc(F)c3cc(N4CC5(CCOCC5)C4)cnc23)C1` [Example 121, N-(4-((1R,3S,5S)-3-Amino-5-methylcyclohexyl)pyridin-3-yl)-5-fluoro-3-(7-oxa-2-azaspiro[3.5]nonan-2-yl)quinoline-8-carboxamide] was run?
The IC50 was at most 10 nM.

And the IC50 [2]?
The IC50 was at most 100 nM.

And the IC50 [3]?
Its IC50 is at most 10 nM.

Which results are given for `C[C@@H]1C[C@H](N)C[C@H](c2ccncc2NC(=O)c2ccc(F)c3cc(Nc4ccccc4C#N)cnc23)C1` [Example 129, N-(4-((1R,3S,5S)-3-Amino-5-methylcyclohexyl)pyridin-3-yl)-3-(2-cyanophenylamino)-5-fluoroquinoline-8-carboxamide]?
IC50 [1]: ≤ 10 nM; IC50 [2]: 100 to 1000 nM; IC50 [3]: ≤ 10 nM

For `C[C@@H]1C[C@H](N)C[C@H](c2ccncc2NC(=O)c2ccc(F)c3cc(N4CC[C@H]4CO)cnc23)C1` [Example 123, N-(4-((1R,3S,5S)-3-Amino-5-methylcyclohexyl)pyridin-3-yl)-5-fluoro-3-((S)-2-(hydroxymethyl)azetidin-1-yl)quinoline-8-carboxamide], which IC50 [1] is on record?
The IC50 was at most 10 nM.

And the IC50 [2]?
The IC50 was at most 100 nM.

And the IC50 [3]?
Its IC50 is at most 10 nM.
